In paper PMC12040169 (PLOS Biology, 2025):

Assay: in vitro
Conditions: human, hela cells, % viability

Row | Compound | viability at 28.5 h, 10 µM [%] | viability at 28.5 h, 10 µM (bulk resorufin, single well) [%]
1 | O=C(O)CCc1ccc(-c2ccc(F)cc2)n1CCc1ccccc1 [CBK265936] | 108 | –
2 | CNC(=O)c1ccc(-c2cnc(NCC3CCN(C(=O)OC(C)(C)C)CC3)cn2)cc1 [CBK173726] | 111 | –
3 | CC(=O)N1C[C@@H](c2cccc(C)c2)[C@@H]2CN(CC3CC3)CC[C@@H]21 [CBK283372] | 103 | –
4 | CN(C)CCCNC(=O)C1CCCCN1S(=O)(=O)c1ccc(C(C)(C)C)cc1 (stereo not shown) [CBK200070] | 101 | –
5 | COCCOCN1C(=O)CC2(C1=O)C(=O)N(Cc1ccc(OC(F)(F)F)cc1)c1ccccc12 (stereo not shown) [CBK075942] | 94.2 | –
6 | CCn1c(CNC(=O)c2cn3ccc(C)cc3n2)nc2ccccc21 [CBK281394] | 91.2 | –
7 | CCOC(=O)CN1CCC(Oc2nccnc2OCc2ccc(Cl)c(Cl)c2)CC1 [CBK083113T] | 96.7 | –
8 | CCOC(=O)Nc1ccc2c(c1)N(C(=O)CN(C)C)c1ccccc1S2 [CBK261290C] | 106 | –
9 | O=C(NCc1ccc(F)cc1)c1ccc(=O)n(CC(=O)N2CCC3(CCCCC3)C2)c1 [CBK286021] | 109 | –
10 | CCN(CC)CCSc1nc(O)c(Cc2ccccc2)c(=O)[nH]1 [CBK072486] | 88.9 | –
11 | CN(C)c1cccc(-c2cccc(NCC(c3cccnc3)N(C)C)n2)c1 (stereo not shown) [CBK037697] | 117 | –
12 | O=c1c2ccccc2nc2n1CCN(Cc1ccc(F)cc1)CC2 [CBK284814] | 96.9 | –
13 | CCc1nc2cccnc2n1CCNC(=O)c1cccs1 [CBK283638] | 94.3 | –
14 | Cc1cc(C(=O)N2CCN(C(=O)c3ccco3)CC2)n[nH]1 [CBK144447] | 98.9 | –
15 | Cn1ccc(C2CCCCCN2C(=O)c2cc(C3CC3)on2)n1 (stereo not shown) [CBK283050] | 104 | –
16 | CSc1nsc(SCC(=O)c2cc3ccccc3oc2=O)n1 [CBK268833] | 105 | –
17 | COc1ccc(CC(=O)N2CCC(c3cccc(Cc4ccccc4C)n3)CC2)cc1 [CBK286232] | 93.5 | –
18 | COc1ccc(C)cc1-n1ccc(C(=O)NC(C)(C)C(N)=O)n1 [CBK305789] | 94.1 | –
19 | O=C(Nc1cccc(OCc2ccccc2)c1)c1cnc(-c2ccc(Cl)cc2)c(-c2ccco2)c1 [CBK037429] | 93.9 | –
20 | COc1cc(/C=C2/NC(=O)N(c3cccc(Cl)c3)C2=O)ccc1OCC(=O)Nc1ccc(F)cc1 [CBK265691] | 93 | –
21 | O=C(O)COc1c(-c2ccco2)oc2ccccc2c1=O [CBK269262] | 96.9 | –
22 | CSc1oc(-c2ccccc2)nc1C(N)=O [CBK067744] | 98.4 | –

Row | Compound | viability at 28.5 h, 10 µM [%] | viability at 28.5 h, 10 µM (bulk resorufin, single well) [%]
23 | COc1ccc(CN(C(=O)CCc2c(C)[nH]c(=O)c(C#N)c2C)C2CC2)cc1 [CBK295667] | 97.6 | –
24 | CCn1cc(-c2cncn2CCn2nc(C)c(Cl)c2C)cn1 [CBK281708] | 87.9 | –
25 | O=C1NC(=S)NC(=O)C1=CNCCc1c[nH]c2ccccc12 [CBK261124] | – | 110
26 | Cc1nnc(SCC(=O)NNC(=O)c2cccs2)[nH]1 [CBK266879] | 93.7 | –
27 | Cc1ccc(N(C(C)C(=O)Nc2ccccc2-c2ccccc2)S(C)(=O)=O)cc1 (stereo not shown) [CBK267889] | 105 | –
28 | O=C(CN1CCCCCC1=O)Nc1nc(-c2ccccc2F)cs1 [CBK281408] | 104 | –
29 | O=C(CCn1c(C(F)(F)F)cc2cccnc21)NC1CCCC1 [CBK284864] | 103 | –
30 | Nc1ncc(-c2cccnc2)nc1NC1CCC(O)CC1 (stereo not shown) [CBK063840] | 92.7 | –
31 | Cc1[nH]c2cc(C(=O)O)ccc2c1CC(=O)O [CBK269955] | 98 | –
32 | CCOC(=O)c1cnn(C2CCCN(Cc3cc(C#N)cs3)C2)c1 (stereo not shown) [CBK305399] | 101 | –
33 | N=C(N/N=C\c1ccncc1)N/N=C\c1ccncc1 [CBK263278C] | 94.1 | –
34 | CC(c1ccccc1)C(CC(=O)O)C(=O)NCc1ccccc1 (stereo not shown) [CBK286830] | 101 | –
35 | COc1ccccc1-c1nnc(SCC(=O)O)n1-c1ccccc1 [CBK116149] | 89.5 | –
36 | Cn1nc(C2CCN(C(=O)C3CCCCC3)CC2)c2cccnc21 [CBK284897] | 78.6 | –
37 | O=c1[nH]ccn1CCNc1ccc(-c2cccc(Cl)c2Cl)cn1 [CBK037745] | 93.1 | –
38 | CCn1cnc2cc(NC(=O)c3ccc(C)n(C)c3=O)ccc21 [CBK281402] | 106 | –
39 | O=C(N1CCCC1)N1CCN(c2cncc(-c3ccc(O)cc3)n2)CC1 [CBK126947T] | 93.5 | –
40 | O=C(Cn1nnc2ccccc2c1=O)NC1CCN2CCCCC12 (stereo not shown) [CBK305589] | 105 | –
41 | O=S(=O)(c1ccccc1)N1CCC(c2cc3ncccc3[nH]2)CC1 [CBK283397] | 104 | –
42 | Cc1n[nH]c(C)c1Sc1nnc(O)nc1O [CBK027833] | 87.2 | –
43 | N=C(NC(=S)Nc1ccccc1)N1CCN(Cc2ccccc2)CC1 [CBK267878] | 106 | –
44 | CC(=O)N1c2ccc(C(O)CN3CCSCC3)cc2CC1C (stereo not shown) [CBK283143] | 98.9 | –

Row | Compound | viability at 28.5 h, 10 µM [%] | viability at 28.5 h, 10 µM (bulk resorufin, single well) [%]
45 | NCCNc1ccc([N+](=O)[O-])c(Sc2nc3ccccc3[nH]2)c1 [CBK265882] | 106 | –
46 | COc1ccc(-c2onc(C)c2-c2cnn(-c3ccccc3)c2)c(O)c1 [CBK296095] | 116 | –
47 | CC1CCC(C(N)=O)CN1C(=O)c1ccc(Oc2cccc(Br)c2)nc1 (stereo not shown) [CBK306005] | 106 | –
48 | COc1ccccc1N1CCN(C(=O)NCCc2c[nH]cn2)CC1 [CBK155369] | 98.8 | –
49 | CCc1nc2ccc(C(=O)Nc3cccc(NS(C)(=O)=O)c3)cn2c1N(C)CCCc1ccccc1 [CBK146670] | 101 | –
50 | C=CCNC(=O)c1cc(Br)cnc1NCC1CC1 [CBK076424] | 102 | –
51 | OC[C@@H](c1ccccc1)N1CC[C@H]2c3ccc(Br)cc3CC[C@H]21 [CBK017507C] | 84.4 | –
52 | COc1ncc(-c2nccnc2OCc2ccccc2)c(OC)n1 [CBK106748] | 108 | –
53 | Cc1ccc2nc(O)c(CNc3ccc(-c4nc5cc(C)ccc5[nH]4)cc3)cc2c1 [CBK286161] | 89.7 | –
54 | CC(NC(=O)CCc1cnn(C)c1)c1nc(-c2ccncc2)cs1 (stereo not shown) [CBK305496] | 91.4 | –
55 | Cc1nc(NS(=O)(=O)c2ccccc2)sc1NC(=O)Nn1cnnc1 [CBK266699] | 85.4 | –
56 | Cc1ccc(N2C(=O)N[C@@H]3CCN(C(=O)c4ccc(C(C)(C)C)cc4)[C@@H]3C2=O)cc1 [CBK289284] | 98.8 | –
57 | O=C1Cc2ccccc2C2(CCN(C(=O)Nc3c(F)cccc3F)CC2)N1 [CBK047296] | 89 | –
58 | O=C(CCN1CCN2CCCCC2C1)N1c2ccccc2Sc2ccc(Cl)cc21 (stereo not shown) [CBK278257F] | 86.3 | –
59 | CC1(C)Cc2ccccc2C(NCC(=O)O)=N1 [CBK262562] | 83 | –
60 | CCCC(=O)c1ccc(S(=O)(=O)N2CCN(Cc3cccc(F)c3C)CC2)cc1 [CBK063152] | 88.4 | –
61 | O=C(NC1CCS(=O)(=O)C1)c1cc(-c2cccnc2)cnc1NCc1ccc2c(c1)OCO2 (stereo not shown) [CBK076455] | 89.2 | –
62 | COc1ccccc1N1CCN(C(=O)c2ccccc2C(=O)c2ccccc2)CC1 [CBK091506] | 92.9 | –
63 | COc1ccc(C(=O)C(OC(=O)c2cc(O)nc3ccccc23)c2ccccc2)cc1 (stereo not shown) [CBK264083] | 97.1 | –
64 | O=C(c1ccccc1)c1cc[n+](CCC[n+]2ccc(C(=O)c3ccccc3)cc2)cc1 [CBK278270B] | 91.5 | –
65 | COc1ccc(-c2ncc(OCC3CCCN3C)nc2N)c(OC)c1 (stereo not shown) [CBK145091] | 88.9 | –
66 | O=C(NCc1ccncc1)c1nccnc1-c1ccc(COc2ccccc2)cc1 [CBK050836] | 88.1 | –

Row | Compound | viability at 28.5 h, 10 µM [%] | viability at 28.5 h, 10 µM (bulk resorufin, single well) [%]
67 | O=C(O)CCC(=O)Nc1ccc(Br)c2cccnc12 [CBK265186] | 105 | –
68 | Cn1nc(-c2ccc(N3CCCCC3)c(NC(=O)COc3ccccc3)c2)c2ccccc2c1=O [CBK265780] | 97.3 | –
69 | COc1ccc(-c2ccc3c(c2)COC2(CCNCC2)O3)cn1 [CBK060913] | – | 81
70 | Cc1csc2ncc(C(=O)NCc3ccccc3)c(=O)n12 [CBK287290] | 89.3 | –
71 | O=C(CN(c1ccc(F)cc1)S(=O)(=O)c1ccccc1)Nc1ccc2c(c1)OCCO2 [CBK265215] | 94.8 | –
72 | CCNC(=O)CN1CCN(c2ccc(C#N)cc2C(F)(F)F)CC1 [CBK306112] | 85 | –
73 | CN1CCN(c2ccc(-c3cncc(NC4CCOCC4)n3)cn2)CC1 [CBK037229] | 105 | –
74 | O=C(NCC1Cc2ccccc2O1)c1ccc(Br)cc1Cl (stereo not shown) [CBK298323] | 86.9 | –
75 | COc1cc(CCN2C(=O)c3cccc4cccc(c34)C2=O)c(S(=O)(=O)N2CCCC2)cc1OC [CBK264947] | 102 | –
76 | CCN1CCN(C(=O)c2cccc(N(C)C)c2)C(Cc2ccc(-c3ccncc3)cc2)C1=O (stereo not shown) [CBK285813] | 101 | –
77 | CCCn1cnc2cc(NC(=O)c3ccc(=O)n(CC(=O)N(C)c4ccccc4)c3)ccc21 [CBK286026] | 94.3 | –
78 | Cc1cccc(C(=O)N/N=C/c2ccoc2)c1O [CBK018727] | 90.7 | –
79 | Cc1c(F)cccc1CN(CCCN)C(=O)Nc1ccccc1C(C)(C)C [CBK034699C] | 89.3 | –
80 | CCc1ccc(C(O)CNC2CCN(CC(F)F)CC2)cc1 (stereo not shown) [CBK304144] | 109 | –
81 | COc1ccc(CCNC2CCN(Cc3ccccc3)CC2c2ccccc2)cc1OC (stereo not shown) [CBK286166] | 92.8 | –
82 | CCn1c(SCC(=O)Nc2ccc(OC)c(Cl)c2)nnc1-c1ccccc1O [CBK268021] | 101 | –
83 | CC(C)c1nc(NCCc2nnc3n2CCC3)nc(N(C)C)n1 [CBK306409] | 89.1 | –
84 | O=C(NC1CN2CCC1CC2)c1ncoc1-c1ccccc1 (stereo not shown) [CBK283888] | 104 | –
85 | Cc1cc(Br)c(O)c(C(=O)N(C)CC(=O)Nc2cc(C)on2)c1 [CBK306002] | 94.8 | –
86 | NNC(=O)COc1ccc2ccccc2c1 [CBK261208] | 104 | –
87 | O=S(=O)(Nc1cc(NC2CCNC2)c2occc2c1)c1ccccc1 (stereo not shown) [CBK066943C] | 104 | –
88 | COc1cc([N+](=O)[O-])ccc1NC(=S)NNS(=O)(=O)c1cc(Cl)c(Cl)cc1Cl [CBK266863] | 96.2 | –
